Measured values published in patent US20240400555A1 (Initial Therapeutics, Inc., priority 2023, published 2024).

Each molecule was assayed on MV-4-11 cells (assay: Cell Viability Assay in MV-4-11 Cells). Conditions: Homo sapiens, MV4-11, 72 h.
Type: cell-based
Description: MV-4-11 cells (ATCC) were seeded into sterile 96-well flat clear bottom white polystyrene TC-treated microplates (Corning) at 7,000 cells/well in 150 μL complete growth medium (Iscove's Modified Dulbecco's Medium (IMDM) (Gibco), 10% Heat Inactivated Fetal Bovine Serum (HyClone), 1% Penicillin-Streptomycin-L-Glutamine (HyClone), 1% GlutaMAX (Gibco)). […] After 72 h incubation, plates were removed from incubators and allowed to equilibrate to room temperature (˜10 min) before adding 50 μL per well Cell-Titer Glo reagent (Promega) using a WellJet (Integra Biosciences) dispenser. Plates were then incubated at room temperature for 2-20 min prior to measurement of luminescence on an Envision (Perkin Elmer) plate reader. Data were normalized to DMSO (100% viability) and analyzed using a non-linear four-parameter curve fit.

| Structure (SMILES) | IC50 |
| --- | --- |
| C=C(C)c1csc2c(N(C(=O)c3ccc(-c4cn(C)nn4)cc3F)[C@@H]3CCCNC3)nccc12 [Example 675, 2-fluoro-N-(3-isopropenylthieno[2,3-c]703yridine-7-yl)-4-(1-methyltriazol-4-yl)-N-[(3R)-3-piperidyl]benzamide] | > 1000 nM |
| CNC(=S)Nc1ccc(-c2cc3c(N(C(=O)c4ccc(-c5cn(C)nn5)cc4F)[C@@H]4CCCNC4)nccc3s2)cc1 [Example 548, (R)-2-fluoro-4-(1-methyl-1H-1,2,3-triazol-4-yl)-N-(2-(4-(3-methylthioureido)phenyl)thieno[3,2-c]pyridin-4-yl)-N-(piperidin-3-yl)benzamide] | 240 nM |

Same assay, conditions: Homo sapiens, MV4-11, 72 h, MV-4-11 cells, 72 h, Cell-Titer Glo; read-out: IC50

| IC50 | Structure (SMILES) |
| --- | --- |
| 6.9 nM | Cc1cc(Cl)cc2ccnc(N(C(=O)c3ccc(-c4cn(C)nn4)cc3F)[C@@H]3CCCNC3)c12 [Example 444, N-(6-chloro-8-methyl-1-isoquinolyl)-2-fluoro-4-(1-methyltriazol-4-yl)-N-[(3R)-3-piperidyl] benzamide] |
| 430 nM | Cc1cccc2ccnc(N(C(=O)c3cccc(C#CCCC(=O)N4CCOCC4)c3)[C@@H]3CCCNC3)c12 [Example 519, (R)—N-(8-methylisoquinolin-1-yl)-3-(5-morpholino-5-oxopent-1-yn-1-yl)-N-(piperidin-3-yl)benzamide] |
| 520 nM | Cn1cc(-c2ccc(C(=O)N(c3nccc4sc(C#CC(C)(C)O)cc34)[C@@H]3CCCNC3)c(F)c2)nn1 [Example 551, 2-fluoro-N-[2-(3-hydroxy-3-methyl-but-1-ynyl)thieno[3,2-c]pyridin-4-yl]-4-(1-methyltriazol-4-yl)-N-[(3R)-3-piperidyl]benzamide] |
| 82 nM | Cc1cc(-c2ccc(C(=O)N(c3nccc4cccc(C)c34)[C@@H]3CCCNC3)c(F)c2)on1 [Example 316, (R)-2-fluoro-N-(8-methylisoquinolin-1-yl)-4-(3-methylisoxazol-5-yl)-N-(piperidin-3-yl) benzamide] |
| 160 nM | Cc1cc(F)cc2ccnc(N(C(=O)c3ccc(-c4cnn5cccnc45)cc3F)[C@@H]3CCCNC3)c12 [Example 627, (R)-2-fluoro-N-(6-fluoro-8-methylisoquinolin-1-yl)-N-(piperidin-3-yl)-4-(pyrazolo[1,5-a]pyrimidin-3-yl)benzamide] |
| 120 nM | Cc1cccc2ccnc(N(C(=O)c3ccc(Nc4nccc(NCc5ccccc5)n4)cc3F)[C@@H]3CCCNC3)c12 [Example 786, (R)-4-((4-(benzylamino)pyrimidin-2-yl)amino)-2-fluoro-N-(8-methylisoquinolin-1-yl)-N-(piperidin-3-yl) benzamide] |
| 39 nM | Cc1cccc2ccnc(N(C(=O)c3ccc(Nc4nccc(N5CCOC[C@H]5C(C)C)n4)cc3F)[C@@H]3CCCNC3)c12 [Example 941, 2-fluoro-4-((4-((R)-3-isopropylmorpholino)pyrimidin-2-yl)amino)-N-(8-methylisoquinolin-1-yl)-N—((R)-piperidin-3-yl)benzamide] |
| 510 nM | Cc1cc(C2CCN(C(=O)N(c3nccc4scc(C)c34)[C@@H]3CCCNC3)CC2)on1 [Example 796, (R)-4-(3-methylisoxazol-5-yl)-N-(3-methylthieno[3,2-c]pyridin-4-yl)-N-(piperidin-3-yl)piperidine-1-carboxamide] |
| 1300 nM | O=C(c1ccc(Nc2ncccn2)cc1F)N(c1nccc2cc(Cl)ccc12)[C@@H]1CCCNC1 [Example 794, (R)—N-(6-chloroisoquinolin-1-yl)-2-fluoro-N-(piperidin-3-yl)-4-(pyrimidin-2-ylamino)benzamide] |
| 430 nM | Cc1cc(Cl)cc2ccnc(N(C(=O)c3ccc(-c4cnn(C)c4C)cc3F)[C@@H]3CCCNC3)c12 [Example 814, (R)—N-(6-chloro-8-methylisoquinolin-1-yl)-4-(1,5-dimethyl-1H-pyrazol-4-yl)-2-fluoro-N-(piperidin-3-yl)benzamide] |
| 420 nM | Cc1cccc2ccnc(N(C(=O)c3ccc(-c4cncc5c4OCCC5)cc3)[C@@H]3CCCNC3)c12 [Example 922, (R)-4-(3,4-dihydro-2H-pyrano[3,2-c]pyridin-8-yl)-N-(8-methylisoquinolin-1-yl)-N-(piperidin-3-yl)benzamide] |
| 79 nM | Cn1ccc2ccnc(N(C(=O)c3ccc(-n4nnc5cccnc54)cc3F)[C@@H]3CCCNC3)c21 [Example 317, (R)-4-(3H-[1,2,3]triazolo[4,5-b]pyridin-3-yl)-2-fluoro-N-(1-methyl-1H-pyrrolo[2,3-c]pyridin-7-yl)-N-(piperidin-3-yl)benzamide] |
| 460 nM | Cn1cc(-c2ccc(C(=O)N(c3nccc4sc(-c5ccc(C(N)C(F)(F)F)cc5)cc34)[C@@H]3CCCNC3)c(F)c2)nn1 (stereo partly drawn) [Example 613, N-(2-(4-(1-amino-2,2,2-trifluoroethyl)phenyl)thieno[3,2-c]pyridin-4-yl)-2-fluoro-4-(1-methyl-1H-1,2,3-triazol-4-yl)-N—((R)-piperidin-3-yl)benzamide] |
| 300 nM | N#Cc1ccc(-c2cc3c(N(C(=O)c4ccc(-n5nnc6cccnc65)cc4F)[C@@H]4CCCNC4)nccc3s2)cc1 [Example 387, N-[2-(4-cyanophenyl)thieno[3,2-c]pyridin-4-yl]-2-fluoro-N-[(3R)-3-piperidyl]-4-(triazolo[4,5-b]pyridin-3-yl)benzamide] |
| 310 nM | Cc1cccc2ccnc(N(C(=O)c3ccc(Nc4nccc(CN5CCOCC5)n4)cc3F)[C@@H]3CCCNC3)c12 [Example 741, (R)-2-fluoro-N-(8-methylisoquinolin-1-yl)-4-((4-(morpholinomethyl)pyrimidin-2-yl)amino)-N-(piperidin-3-yl)benzamide] |
| 130 nM | Cc1nnc(-c2ccc(C(=O)N(c3nccc4cc(Cl)cc(C)c34)[C@@H]3CCCNC3)cc2)o1 [Example 772, (R)—N-(6-chloro-8-methylisoquinolin-1-yl)-4-(5-methyl-1,3,4-oxadiazol-2-yl)-N-(piperidin-3-yl)benzamide] |
| 3000 nM | O=C(c1ccc(Nc2ncc(F)cn2)cc1F)N(c1nccc2cc(F)ccc12)[C@@H]1CCCNC1 [Example 787, (R)-2-fluoro-N-(6-fluoroisoquinolin-1-yl)-4-((5-fluoropyrimidin-2-yl)amino)-N-(piperidin-3-yl)benzamide] |
| 1000 nM | NC(=O)c1ccc(-c2cc3c(N(C(=O)c4ccc(-c5cnn6c5CCCC6)cc4F)[C@@H]4CCCNC4)nccc3s2)cc1 [Example 825, N-[2-(4-carbamoylphenyl)thieno[3,2-c]pyridin-4-yl]-2-fluoro-N-[(3R)-3-piperidyl]-4-(4,5,6,7-tetrahydropyrazolo[1,5-a]pyridin-3-yl)benzamide] |
| 640 nM | O=C(c1ccc(-n2nnc3cccnc32)cc1F)N(c1nccc2sc(-c3ccccc3)cc12)[C@@H]1CCCNC1 [Example 464, 2-fluoro-N-(2-phenylthieno[3,2-c]pyridin-4-yl)-N-[(3R)-3-piperidyl]-4-(triazolo[4,5-b]pyridin-3-yl)benzamide] |
| 48 nM | [2H]C([2H])([2H])c1nnc(-c2ccc(C(=O)N(c3nccc4cc(C)cc(C)c34)[C@@H]3CCCNC3)c(F)c2)s1 [Example 906, N-(6,8-dimethyl-1-isoquinolyl)-2-fluoro-N-[(3R)-3-piperidyl]-4-[5-(trideuteriomethyl)-1,3,4-thiadiazol-2-yl]benzamide] |
| 430 nM | O=C(c1ccc(-n2nnc3cccnc32)cc1F)N(c1nccc2sc(-c3cc[nH]c(=O)c3)cc12)[C@@H]1CCCNC1 [Example 459, 2-fluoro-N-[2-(2-oxo-1H-pyridin-4-yl)thieno[3,2-c]pyridin-4-yl]-N-[(3R)-3-piperidyl]-4-(triazolo[4,5-b]pyridin-3-yl)benzamide] |
| 140 nM | CCc1nnc(-c2ccc(C(=O)N(c3nccc4cccc(C)c34)[C@@H]3CCCNC3)cc2)s1 [Example 791, (R)-4-(5-ethyl-1,3,4-thiadiazol-2-yl)-N-(8-methylisoquinolin-1-yl)-N-(piperidin-3-yl) benzamide] |
| 81 nM | O=C(c1ccc(-n2nnc3cccnc32)cc1F)N(c1nccc2cc(/C=C/CO)ccc12)[C@@H]1CCCNC1 [Example 331, (R)-4-(3H-[1,2,3]triazolo[4,5-b]pyridin-3-yl)-2-fluoro-N-(6-(3-hydroxyprop-1-en-1-yl)isoquinolin-1-yl)-N-(piperidin-3-yl)benzamide] |
| 250 nM | COCc1c(-c2ccc(C(=O)N(c3nccc4cc(Cl)cc(C)c34)[C@@H]3CCCNC3)c(F)c2)nnn1C [Example 637, (R)—N-(6-chloro-8-methylisoquinolin-1-yl)-2-fluoro-4-(5-(methoxymethyl)-1-methyl-1H-1,2,3-triazol-4-yl)-N-(piperidin-3-yl)benzamide] |
| 200 nM | Cc1nnc(-c2ccc(C(=O)N(c3nccc4c(Cl)cn(C)c34)[C@@H]3CCCNC3)c(F)c2)s1 [Example 664, (R)—N-(3-chloro-1-methyl-1H-pyrrolo[2,3-c]pyridin-7-yl)-2-fluoro-4-(5-methyl-1,3,4-thiadiazol-2-yl)-N-(piperidin-3-yl)benzamide] |
| 50 nM | Cc1cccc2ccnc(N(C(=O)c3ccc(Nc4nccc(N5CCOCC5=O)n4)cc3F)[C@@H]3CCCNC3)c12 [Example 937, (R)-2-fluoro-N-(8-methylisoquinolin-1-yl)-4-(4-(3-oxomorpholino)pyrimidin-2-ylamino)-N-(piperidin-3-yl)benzamide] |
| 1500 nM | O=C(c1ccc(-c2cnn3c2CCCC3)cc1F)N(c1nccc2sc(C#CCCCO)cc12)[C@@H]1CCCNC1 [Example 839, 2-fluoro-N-[2-(5-hydroxypent-1-ynyl)thieno[3,2-c]pyridin-4-yl]-N-[(3R)-3-piperidyl]-4-(4,5,6,7-tetrahydropyrazolo[1,5-a]pyridin-3-yl)benzamide] |
